Molecular target: SREBP-2 (Homo sapiens (Human), UniProt Q12772)
Experiment: In vitro assay SREBP-2: PathHunter U2OS SREBP-2 Nuclear Translocation Cell Line, U18666A-stimulated
Type: cell-based
Conditions: PathHunter U2OS SREBP-2 nuclear translocation cells, U18666A 10 μM, overnight (16 hours)

| Compound | IC50 |
| --- | --- |
| CC(C)CC1(O)CCN(C(=O)CC[C@@H](C)[C@H]2CC[C@H]3[C@@H]4CC=C5C[C@@H](O)CC[C@]5(C)[C@H]4CC[C@]23C)CC1 [Example 93, (R)-4-((3S,8S,9S,10R,13R,14S,17R)-3-hydroxy-10,13-dimethyl-2,3,4,7,8,9,10,11,12,13,14,15,16,17-tetradecahydro-1H-cyclopenta[a]phenanthren-17-yl)-1-(4-hydroxy-4-isobutylpiperidin-1-yl) pentan-1-one] | < 250 nM |
| C[C@H](CCC(=O)N1CC[C@H](Nc2ccncc2)C1)[C@H]1CC[C@H]2[C@@H]3CC=C4C[C@@H](O)CC[C@]4(C)[C@H]3CC[C@]12C [Example 530, (4R)-4-[(1R,3aS,3bS,7S,9aR,9bS,11aR)-7-hydroxy-9a,11a-dimethyl-1H,2H,3H,3aH,3bH,4H,6H,7H,8H,9H,9aH,9bH,10H,11H,11aH-cyclopenta[a]phenanthren-1-yl]-1-[(3S)-3-[(pyridin-4-yl)amino]pyrrolidin-1-yl]pentan-1-one] | 250 to 1000 nM |
| Cc1cccnc1OC[C@@H](C)[C@H]1CC[C@H]2[C@@H]3CC=C4C[C@@H](O)CC[C@]4(C)[C@H]3CC[C@]12C [Example 443, (3S,8S,9S,10R,13S,14S,17R)-10,13-dimethyl-17-((S)-1-((3-methylpyridin-2-yl)oxy)propan-2-yl)-2,3,4,7,8,9,10,11,12,13,14,15,16,17-tetradecahydro-1H-cyclopenta[a]phenanthren-3-ol] | < 250 nM |
| Cc1cncc(O[C@@H](C)[C@H]2CC[C@H]3[C@@H]4CC=C5C[C@@H](O)CC[C@]5(C)[C@H]4CC[C@]23C)c1 [Example 272, (3S,8S,9S,10R,13S,14S,17S)-10,13-dimethyl-17-((S)-1-((5-methylpyridin-3-yl)oxy)ethyl)-2,3,4,7,8,9,10,11,12,13,14,15,16,17-tetradecahydro-1H-cyclopenta[a]phenanthren-3-ol] | < 250 nM |
| COC(=O)N1CCN(C(=O)CC[C@@H](C)[C@H]2CC[C@H]3[C@@H]4CC=C5C[C@](O)(C(F)(F)F)CC[C@]5(C)[C@H]4CC[C@]23C)CC1 [Example 419, Methyl 4-((R)-4-((3S,8S,9S,10R,13R,14S,17R)-3-hydroxy-10,13-dimethyl-3-(trifluoromethyl)-2,3,4,7,8,9,10,11,12,13,14,15,16,17-tetradecahydro-1H-cyclopenta[a]phenanthren-17-yl)pentanoyl)piperazine-1-carboxylate] | 1000 to 10000 nM |
| C[C@H](Oc1cnccc1CO)[C@H]1CC[C@H]2[C@@H]3CC=C4C[C@@H](O)CC[C@]4(C)[C@H]3CC[C@]12C [Example 268, (3S,8S,9S,10R,13S,14S,17S)-17-((S)-1-((4-(hydroxymethyl)pyridin-3-yl)oxy)ethyl)-10,13-dim ethyl-2,3,4,7,8,9,10,11,12,13,14,15,16,17-tetradecahydro-1H-cyclopenta[a]phenanthren-3-ol] | 250 to 1000 nM |
| Cc1ccc(O[C@@H](C)[C@H]2CC[C@H]3[C@@H]4CC=C5C[C@@H](O)CC[C@]5(C)[C@H]4CC[C@]23C)cn1 [Example 273, (1S,3aS,3bS,7S,9aR,9bS,11aS)-9a,11a-dimethyl-1-[(1S)-1-[(6-methylpyridin-3-yl)oxy]ethyl]-1H,2H,3H,3aH,3bH,4H,6H,7H,8H,9H,9aH,9bH,10H,11H,11aH-cyclopenta[a]phenanthren-7-ol] | < 250 nM |
| CON(C)C(=O)CC[C@@H](C)[C@H]1CC[C@H]2[C@@H]3CC=C4C[C@@H](O)CC[C@]4(C)[C@H]3CC[C@]12C [Example 1, (R)-4-((3S,8S,9S,10R,13R,14S,17R)-3-hydroxy-10,13-dimethyl-2,3,4,7,8,9,10,11,12,13,14,15,16,17-tetradecahydro-1H-cyclopenta[a]phenanthren-17-yl)-N-methoxy-N-methylpentanamide] | < 250 nM |

Source: US20230340011A1 (Asteroid Therapeutics, priority 2022, published 2023)
